Source: US7148246B2, “Cycloalkyl derivatives having bioisosteric carboxylic acid groups, processes for their preparation and their use as pharmaceuticals” (Sanofi-Aventis Deutschland GmbH, priority 2003, dated 2006)
pEC50: −log10 of the molar value.

Biological target: T1, human PPARalpha (Homo sapiens, UniProt Q07869)
T1 construct: amino acids S167–Y468; expressed in transfected cells; host or cells: HEK (human embryo kidney) cells, stably transfected with pcDNA3 carrying the fusion construct
T1 sequence (Q07869 167-468): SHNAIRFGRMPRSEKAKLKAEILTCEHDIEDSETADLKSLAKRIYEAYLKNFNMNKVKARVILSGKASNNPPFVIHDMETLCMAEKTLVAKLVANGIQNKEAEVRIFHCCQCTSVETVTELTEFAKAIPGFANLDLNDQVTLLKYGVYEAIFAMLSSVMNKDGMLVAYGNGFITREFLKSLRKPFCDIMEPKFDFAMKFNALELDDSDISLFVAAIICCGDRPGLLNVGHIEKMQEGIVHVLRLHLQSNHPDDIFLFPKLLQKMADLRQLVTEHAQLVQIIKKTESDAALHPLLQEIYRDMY
Test: Cellular PPARalpha assay (stably transfected HEK luciferase reporter cell line)
Format: cell-based
Details: PPARalpha reporter cell line (HEK, GR-GAL4-humanPPARalpha-LBD), luciferase readout
Method: Determination of EC50 Values of PPAR Agonists in the Cellular PPARalpha Assay
The potency of substances which bind to human PPARalpha and activate in an agonistic manner is analyzed using a stably transfected HEK cell line (HEK=human embryo kidney) which is referred to here as PPARalpha reporter cell line. It contains two genetic elements, a luciferase reporter element (pdeltaM-GAL4-Luc-Zeo) and a PPARalpha fusion protein (GR-GAL4-humanPPARalpha-LBD) which mediates expression of the luciferase reporter element depending on a PPARalpha ligand. The stably and constitutively expressed fusion protein GR-GAL4-humanPPARalpha-LBD binds in the cell nucleus of the PPARalpha reporter cell line via the GAL4 protein portion to the GAL4 DNA binding motifs 5′-upstream of the luciferase reporter element which is integrated in the genome of the cell line. There is only little expression of the luciferase reporter gene without addition of a PPARalpha ligand if fatty acid-depleted fetal calf serum (cs-FCS) is used in the assay. PPARalpha ligands bind and activate the PPARalpha fusion protein and thereby bring about expression of the luciferase reporter gene. The luciferase which is formed can be detected by means of chemiluminescence via an appropriate substrate.
The PPARalpha reporter cell line was prepared in 2 stages. Firstly, the luciferase reporter element was constructed and stably transfected into HEK cells. For this purpose, five binding sites of the yeast transcription factor GAL4 (each 5′-CGGAGTACTGTCCTCCGAG-3′) (SEQ ID No.1) were cloned in 5′-upstream of a 68 bp-long minimal MMTV promoter (Genbank Accession #V01175). The minimal MMTV promoter section contains a […] and a TATA element in order to enable efficient transcription by RNA polymerase II. The cloning and sequencing of the GAL4-MMTV construct took place in analogy to the description of Sambrook J. et. al. (Molecular cloning, Cold Spring Harbor Laboratory Press, 1989). Then the complete Photinus pyralis gene (Genbank Accession #M15077) was cloned in 3′-downstream of the GAL4-MMTV element. After sequencing, the luceriferase reporter element consisting of five GAL4 binding sites, MMTV promoter and luciferase gene was recloned into a plasmid which confers zeocin resistance in order to obtain the plasmid pdeltaM-GAL4-Luc-Zeo. This vector was transfected into HEK cells in accordance with the statements in Ausubel, F. M. et al. (Current protocols in molecular biology, Vol. 1–3, John Wiley & Sons, Inc., 1995). […] In a second step, the PPARalpha fusion protein (GR-GAL4-humanPPARalpha-LBD was introduced into the stable cell clone described. For this purpose, initially the cDNA coding for the N-terminal 76 amino acids of the glucocorticoid receptor (Genbank Accession #P04150) was linked to the cDNA section coding for amino acids 1–147 of the yeast transcription factor GAL4 (Genbank Accession #P04386). The cDNA of the ligand-binding domain of the human PPARalpha receptor (amino acids S167–Y468; Genbank Accession #S74349) was cloned in at the 3′-end of this GR-GAL4 construct. The fusion construct prepared in this way (GR-GAL4-humanPPARalpha-LBD) was recloned into the plasmid pcDNA3 (from Invitrogen) in order to enable constitutive expression therein by the cytomegalovirus promoter. This plasmid was linearized with a restriction endonuclease and stably transfected into the previously described cell clone containing the luciferase reporter element. The finished PPARalpha reporter cell line which contains a luciferase reporter element and constitutively expresses the PPARalpha fusion protein (GR-GAL4-human PPARalpha-LBD) was isolated by selection with zeocin (0.5 mg/ml) and G418 (0.5 mg/ml).
The activity of PPARalpha agonists is determined in a 3-day assay which is described below: […]

SMILES | pEC50
Cc1ccc(-c2nc(CO[C@@H]3CCC[C@H](/C=C4/SC(=O)NC4=O)C3)c(C)o2)cc1 (racemic) [Example XXXIV, 5-[1-[cis-3-(5-Methyl-2-tolyloxazol-4-ylmethoxy)cyclohexyl]methylidene]-thiazolidine-2,4-dione] | 6.94
Cc1oc(-c2ccc(F)cc2)nc1COC1CCCC(OC/C=C2\NC(=O)NC2=O)C1 (racemic) [XXIV, 5-[2-{cis-3-[2-(4-Fluorophenyl)-5-methyloxazol-4-ylmethoxy]cyclohexyloxy}-ethylidene]imidazolidine-2,4-dione] | 6.64
Cc1oc(-c2ccc(F)cc2)nc1CO[C@@H]1CCC[C@H](OS(=O)(=O)c2cc([N+](=O)[O-])ccc2Cl)C1 (relative stereo) [Example XX, cis-3-[2-(4-fluorophenyl)-5-methyloxazol-4-ylmethoxy]cyclohexyl 2-chloro-5-nitrobenzenesulfonate] | 5.71
COc1ccc(S(=O)(=O)O[C@H]2CCC[C@@H](OCc3nc(-c4ccc(F)cc4)oc3C)C2)c([N+](=O)[O-])c1 (relative stereo) [Example XXI, cis-3-[2-(4-fluorophenyl)-5-methyloxazol-4-ylmethoxy]cyclohexyl 4-methoxy-2-nitrobenzenesulfonate] | 5.90
Cc1oc(-c2ccc(F)cc2)nc1CO[C@@H]1CCC[C@H](OCCC2SC(=O)NC2=O)C1 (relative stereo) [Example XXVI, 5-(2-{cis-3-[2-(4-Fluorophenyl)-5-methyloxazol-4-ylmethoxy]cyclohexyloxy}-ethyl)thiazolidine-2,4-dione] | 6.15
Cc1oc(-c2ccc(F)cc2)nc1CO[C@H]1CCC[C@@H](OCc2cccc([N+](=O)[O-])c2)C1 (relative stereo) [VIII, 2-(4-Fluorophenyl)-5-methyl4-[cis-3-(3-nitrobenzyloxy)cyclohexyloxy-methyl]oxazole] | 7.04
Cc1cccc(-c2nc(COC3CCCC(OCCC4SC(=O)NC4=O)C3)c(C)o2)c1 (stereo not drawn) [Example XXVII, 5-{2-[(cis-3-(5-Methyl-2-tolyloxazol-4-ylmethoxy)cyclohexyloxy]ethyl}thiazolidine-2,4-dione] | 6.14
Cc1ccc(-c2nc(COC3CCCC(CC4SC(=O)NC4=O)C3)c(C)o2)cc1 (stereo not drawn) [XXXV, 5-[cis-3-(5-Methyl-2-tolyloxazol-4-ylmethoxy)cyclohexylmethyl]thiazolidine-2,4-dione] | 6.73
